Several values for one entry are separate records, joined by “and”; a condition that tells them apart may be missing. Equal entries are not always repeated. Where two headings read alike, the source gives them in different places.
Molecular target: T1, rSjTGR-Sec (Schistosoma japonicum, UniProt B5THG7)
T1 sequence (B5THG7 1-596): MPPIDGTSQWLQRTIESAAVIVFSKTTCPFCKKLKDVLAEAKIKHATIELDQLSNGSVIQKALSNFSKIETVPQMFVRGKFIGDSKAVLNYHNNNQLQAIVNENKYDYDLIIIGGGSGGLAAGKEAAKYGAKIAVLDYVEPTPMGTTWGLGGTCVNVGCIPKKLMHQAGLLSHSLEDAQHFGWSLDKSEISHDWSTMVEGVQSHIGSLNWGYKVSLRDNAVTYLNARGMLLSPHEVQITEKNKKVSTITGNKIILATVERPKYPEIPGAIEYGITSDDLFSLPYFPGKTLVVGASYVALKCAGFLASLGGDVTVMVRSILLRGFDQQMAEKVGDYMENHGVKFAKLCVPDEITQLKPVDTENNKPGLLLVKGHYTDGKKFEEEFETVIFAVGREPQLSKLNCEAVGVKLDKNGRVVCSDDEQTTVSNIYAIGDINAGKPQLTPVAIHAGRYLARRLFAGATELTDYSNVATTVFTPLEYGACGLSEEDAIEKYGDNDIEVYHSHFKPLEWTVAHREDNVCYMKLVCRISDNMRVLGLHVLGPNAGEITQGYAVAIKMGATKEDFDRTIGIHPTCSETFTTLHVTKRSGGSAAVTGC
Assay: Inhibition of TrxR activity of rSjTGR-Sec (DTNB reduction, absorbance 412 nm)
Format: biochemical
Conditions: for inhibitory effect on rSjTGR-Sec (in words): furoxan as positive control
Experimental: The rSjTGR-Sec was expressed and harvested as described previously. […] The rSjTGR-Sec was purified by His Mag™ Agarose beads according to manufacturer’s instructions. The concentration of purified rSjTGR-Sec was determined using a Bradford assay kit (Sangon, China), and the protein was identified by sodium dodecyl sulfate polyacrylamide gel electrophoresis (SDS-PAGE) and stored at 4 °C [20].
The novel furoxan derivatives in this work were dissolved in DMSO with a storage solution concentration of 64 millimoles per liter. The analysis of TrxR activity of SWAP containing wtSjTGR and rSjTGR-Sec was performed based on methods described previously. Analysis of the inhibitory activity of the compounds against the TrxR activity of SWAP containing wtSjTGR and rSjTGR-Sec described in this paper was also based on a previously described method. The reaction was performed in 0.1 M potassium phosphate buffer (pH 7.0) containing 10 mM EDTA, 100 µM nicotinamide adenine dinucleotide phosphate (NADPH), 0.2 µg supernatant of SWAP containing wtSjTGR or 0.6 µg rSjTGR-Sec, and the studied compounds with different concentrations at 25 °C in a final volume of 200 μL, and was initiated by adding 3 mM DTNB. […] All assays were done in triplicate.

[1] = DTNB, pH 7.0, 25 °C, triplicate, >50 μM = flat response within range tested, read-out: IC50 of rSjTGR-Sec
[2] = IC50 of rSjTGR-Sec, DTNB, pH 7.0, 25 °C, triplicate, >50 μM = flat response within range tested

IC50 [1]	Structure (SMILES)	other results
3.23 ± 0.05 µM	O=C(OCc1c(-c2ccncc2)no[n+]1[O-])c1ccccc1 [7af, 3-((benzoyloxy)methyl)-4-(pyridin-4-yl)-1,2,5-oxadiazole 2-oxide]	–
> 50 µM	[O-][n+]1onc(-c2cccnc2)c1CNc1ccc(OC(F)(F)F)cc1 [9bb, 4-(pyridin-3-yl)-3-(((4-(trifluoromethoxy)phenyl)amino)methyl)-1,2,5-oxadiazole 2-oxide]	–
> 50 µM	[O-][n+]1onc(-c2cccnc2)c1CN1CCN(c2ccc(F)cc2)CC1 [9bc, 3-((4-(4-fluorophenyl)piperazin-1-yl)methyl)-4-(pyridin-3-yl)-1,2,5-oxadiazole 2-oxide]	–
> 50 µM	[O-][n+]1onc(-c2ccncc2)c1CNc1ccccc1 [9aa, 3-((phenylamino)methyl)-4-(pyridin-4-yl)-1,2,5-oxad-iazole 2-oxide]	–
1.52 ± 0.2 µM	[O-][n+]1onc(-c2ccncc2)c1CNc1ccc(OC(F)(F)F)cc1 [9ab, 4-(pyridin-4-yl)-3-(((4-(trifluoromethoxy)phenyl)amino)methyl)-1,2,5-oxadiazole 2-oxide]	–
> 50 µM	COc1ccc(-c2no[n+]([O-])c2CNc2ccccc2)cn1 [9ca, 4-(6-methoxypyridin-3-yl)-3-((phenylamino)methyl)-1,2,5-oxadiazole 2-oxide]	–
> 50 µM	O=C(OCc1c(-c2cccnc2)no[n+]1[O-])c1c(F)c(F)c(F)c(F)c1F [7bh, 3-(((perfluorobenzoyl)oxy)methyl)-4-(pyridine-3-yl)-1,2,5-oxadiazole 2-oxide]	–
0.036 ± 0.002 µM	[O-][n+]1onc(-c2ccncc2)c1CO [6a, 3-(hydroxymethyl)-4-(pyridin-4-yl)-1,2,5-oxadiazole 2-oxide]	IC50 (read-out: IC50 of rSjTGR-Sec): 0.036 µM
> 50 µM	CCCC(=O)OCc1c(-c2ccncc2)no[n+]1[O-] [7ac, 3-((butyryloxy)methyl)-4-(pyridin-4-yl)-1,2,5-oxadiazole 2-oxide]	–
> 50 µM	O=C(OCc1c(-c2cccnc2)no[n+]1[O-])c1ccccc1 [7bf, 3-((benzoyloxy)methyl)-4-(pyridin-3-yl)-1,2,5-oxadiazole 2-oxide]	–
> 50 µM	CC(C)(C)C(=O)OCc1c(-c2cccnc2)no[n+]1[O-] [7bd, 3-((pivaloyloxy)methyl)-4-(pyridin-3-yl)-1,2,5-oxadiazole 2-oxide]	–
> 50 µM	CCC(=O)OCc1c(-c2ccncc2)no[n+]1[O-] [7ab, 3-((propionyloxy)methyl)-4-(pyridin-4-yl)-1,2,5-oxadiazole 2-oxide]	–
> 50 µM	[O-][n+]1onc(-c2ccncc2)c1CN1CCN(c2ccc(F)cc2)CC1 [9ac, 3-((4-(4-fluorophenyl)piperazin-1-yl)methyl)-4-(pyridin-4-yl)-1,2,5-oxadiazole 2-oxide]	–
> 50 µM	[O-][n+]1onc(-c2cccnc2)c1CNc1ccccc1 [9ba, 3-((phenylamino)methyl)-4-(pyridin-3-yl)-1,2,5-oxadiazole 2-oxide]	–
0.39 ± 0.02 µM	[O-][n+]1onc(-c2cccnc2)c1CO [6b, 3-(hydroxymethyl)-4-(pyridin-3-yl)-1,2,5-oxadiazole 2-oxide]	–
> 50 µM	CCC(=O)OCc1c(-c2cccnc2)no[n+]1[O-] [7bb, 3-((propionyloxy)methyl)-4-(pyridin-3-yl)-1,2,5-oxadiazole 2-oxide]	–
> 50 µM	O=C(OCc1c(-c2cccnc2)no[n+]1[O-])c1cc(C(F)(F)F)cc(C(F)(F)F)c1 [7bi, 3-(((3,5-bis(trifluoromethyl)benzoyl)oxy)methyl)-4-(pyridin-3-yl)-1,2,5-oxadiazole 2-oxide]	–
3.73 ± 1.67 µM	[O-][n+]1onc(-c2ccc(C(F)(F)F)nc2)c1CNc1ccccc1 [9da, 3-((phenylamino)methyl)-4-(6-(trifluoromethyl)pyridin-3-yl)-1,2,5-oxadiazole 2-oxide]	–
> 50 µM	O=C(OCc1c(-c2ccncc2)no[n+]1[O-])c1c(F)c(F)c(F)c(F)c1F [7ah, 3-(((perfluorobenzoyl)oxy)methyl)-4-(pyridin-4-yl)-1,2,5-oxadiazole 2-oxide]	–

Continued, compound first:

Structure (SMILES)	IC50 [1]	other results
CC(C)(C)C(=O)OCc1c(-c2ccncc2)no[n+]1[O-] [7ad, 3-((pivaloyloxy)methyl)-4-(pyridin-4-yl)-1,2,5-oxadiazole 2-oxide]	> 50 µM	–
O=C(OCc1c(-c2ccncc2)no[n+]1[O-])c1cc(C(F)(F)F)cc(C(F)(F)F)c1 [7ai, 3-(((3,5-bis(trifluoromethyl)benzoyl)oxy)methyl)-4-(pyridin-4-yl)-1,2,5-oxadiazole 2-oxide]	> 50 µM	–
[O-][n+]1onc(-c2ccc(C(F)(F)F)nc2)c1CO [6d, 3-(hydroxymethyl)-4-(6-(trifluoromethyl)pyridine-3-yl)-1,2,5-oxadiazole 2-oxide]	0.0558 ± 0.00318 µM	IC50 (read-out: IC50 of rSjTGR-Sec): 0.0075 µM and 0.0558 µM
C=CC(=O)OCc1c(-c2cccnc2)no[n+]1[O-] [7bj, 3-((acryloyloxy)methyl)-4-(pyridin-3-yl)-1,2,5-oxadiazole 2-oxide]	> 50 µM	–
[O-][n+]1onc(-c2ccncc2)c1CN1CCN(c2cccc(C(F)(F)F)c2)CC1 [9ad, 4-(pyridin-4-yl)-3-((4-(3-(trifluoromethyl)phenyl)piperazin-1-yl)methyl)-1,2,5-oxadiazole 2-oxide]	> 50 µM	–
Cc1ccc(S(=O)(=O)N(Cc2c(-c3cccnc3)no[n+]2[O-])O[Si](C)(C)C(C)(C)C)cc1 [9be, 3-(((N-((tert-butyldimethylsilyl)oxy)-4-methylphenyl)sulfonamido)methyl)-4-(pyridin-3-yl)-1,2,5-oxadiazole 2-oxide]	–	IC50 [2]: 0.22 ± 0.01 µM
COc1ccc(-c2no[n+]([O-])c2COC(C)=O)cn1 [7ca, 3-(acetoxymethyl)-4-(6-methoxypyridin-3-yl)-1,2,5-oxadiazole 2-oxide]	> 50 µM	–
COc1ccc(-c2no[n+]([O-])c2CO)cn1 [6c, 3-(hydroxymethyl)-4-(6-methoxypyridin-3-yl)-1,2,5-oxadi-azole 2-oxide]	2.4 µM and 2.38 µM	–
O=C(OCc1c(-c2cccnc2)no[n+]1[O-])c1ccc(F)cc1 [7bg, 3-(((4-fluorobenzoyl)oxy)methyl)-4-(pyridine-3-yl)-1,2,5-oxadiazole 2-oxide]	> 50 µM	–
O=C(CCl)OCc1c(-c2ccncc2)no[n+]1[O-] [7ae, 3-((2-chloroacetoxy)methyl)-4-(pyridin-4-yl)-1,2,5-oxadiazole 2-oxide]	> 50 µM	inhibitory effect on rSjTGR-Sec (in words): did not show an effective inhibitory effect
CC(=O)OCc1c(-c2ccncc2)no[n+]1[O-] [7aa, 3-(acetoxymethyl)-4-(pyridin-4-yl)-1,2,5-oxadiazole 2-oxide]	> 50 µM	–
O=C(OCc1c(-c2ccncc2)no[n+]1[O-])c1ccc(F)cc1 [7ag, 3-(((4-fluorobenzoyl)oxy)methyl)-4-(pyridin-4-yl)-1,2,5-oxadiazole 2-oxide]	> 50 µM	–
COc1ccc(-c2no[n+]([O-])c2COC(=O)c2ccccc2)cn1 [7cf, 3-((benzoyloxy)methyl)-4-(6-methoxypyridin-3-yl)-1,2,5-oxadiazole 2-oxide]	> 50 µM	inhibitory effect on rSjTGR-Sec (in words): did not show an inhibitory effect
O=C(OCc1c(-c2cccnc2)no[n+]1[O-])c1cccs1 [7bk, 4-(pyridin-3-yl)-3-(((thiophene-2-carbonyl)oxy)methyl) -1,2,5-oxadiazole 2-oxide]	> 50 µM	–
N#Cc1c(-c2ccccc2)no[n+]1[O-] [Furoxan, reference compound]	–	IC50 [2]: 5.87 ± 1.37 µM
CC(=O)OCc1c(-c2ccc(C(F)(F)F)nc2)no[n+]1[O-] [7da, 3-(acetoxymethyl)-4-(6-(trifluoromethyl)pyridin-3-yl)-1,2,5-oxadiazole 2-oxide]	> 50 µM	–
O=C(CCl)OCc1c(-c2cccnc2)no[n+]1[O-] [7be, 3-((2-chloroacetoxy)methyl)-4-(pyridin-3-yl)-1,2,5-oxadiazole 2-oxide]	14.8 ± 3.67 µM	–
CC(=O)OCc1c(-c2cccnc2)no[n+]1[O-] [7ba, 3-(acetoxymethyl)-4-(pyridin-3-yl)-1,2,5-oxadiazole 2-oxide]	> 50 µM	–
CCCC(=O)OCc1c(-c2cccnc2)no[n+]1[O-] [7bc, 3-((butyryloxy)methyl)-4-(pyridin-3-yl)-1,2,5-oxadiazole 2-oxide]	> 50 µM	–
O=C(OCc1c(-c2ccc(C(F)(F)F)nc2)no[n+]1[O-])c1ccccc1 [7df, 3-((benzoyloxy)methyl)-4-(6-(trifluoromethyl)pyridin-3-yl)-1,2,5-oxadiazole 2-oxide]	> 50 µM	–
